Assay results: patent US20070128124A1 (published 2007)
Like-named read-outs stand apart in the source and are kept apart here.

What was measured:
MTB strain H37Rv [1] = format: cell-based, Mycobacterium tuberculosis
MTB strain H37Rv [2] = format: cell-based, Mycobacterium tuberculosis; remark: listed apart in the source
MTB strain H37Rv [3] = format: cell-based, Mycobacterium tuberculosis; remark: listed apart in the source
MTB strain H37Rv [4] = tested on: MTB strain H37Rv; set-up: species or system C57/BL6 mice; conditions: mouse, in vivo
MTB = conditions: against MTB; cited from earlier work
[5] = cited from earlier work
[6] = renal and ototoxicity, parenteral use; cited from earlier work
[7] = cited from earlier work; remark: listed apart in the source
[8] = tested on: tuberculosis bacilli in the lungs; assay: Chronic murine infection model, efficacy versus duration of infection; format: in vivo, mouse
[9] = 10 times MIC, after 18-24 hours of incubation, stationary phase

| Compound | RLU reduction, log phase growth (MTB strain H37Rv [1]) | decrease in RLU from untreated cultures at peak efficacy (MTB strain H37Rv [1]) | efficacy compared with isoniazid and rifampicin (MTB strain H37Rv [1]) | RLU reduction, stationary phase (MTB strain H37Rv [2]; [9]) | reduction in efficacy from log phase cultures (MTB strain H37Rv [2]; stationary versus log phase, RLU at 24 hrs) | reduction of CFUs (MTB strain H37Rv [3]) | reduction in lung CFU, aerosol treated group (MTB strain H37Rv [4]) | reduction in lung CFU, subcutaneous administered group (MTB strain H37Rv [4]; sc) | minimum inhibitory concentration (MIC) (MTB) | maximum serum concentration (Cmax) ([5]; human, reached two hours after intramuscular injection) | oral absorption ([5]; oral) | patients in whom toxicities occur [6] | solubility in water [7] | RLU reduction, stationary phase (MTB strain H37Rv [2]) | time of peak efficacy (RLU endpoint) (MTB strain H37Rv [1]) | time at which an effect begins (MTB strain H37Rv [2]) | reduction of bacillary load in the lungs ([8]; 13 weeks post infection) | reduction of lung CFU ([8]; two weeks post infection) |
| --- | --- | --- | --- | --- | --- | --- | --- | --- | --- | --- | --- | --- | --- | --- | --- | --- | --- | --- |
| Capreomycin | approximately 2 logs | 3.5 log | superior to that of isoniazid and is as efficacious as rifampicin | approximately 2 logs | ~15% | 2.5 logs | ~2.5 logs | 1 log | 2.5 µg/mL | 25000 ng/mL | quite poor | up to 10 % of patients | soluble in water | – | – | – | – | – |
| CO[C@H]1/C=C/O[C@@]2(C)Oc3c(C)c(O)c4c(O)c(c(/C=N/N5CCN(C)CC5)c(O)c4c3C2=O)NC(=O)/C(C)=C\C=C\[C@H](C)[C@H](O)[C@@H](C)[C@@H](O)[C@@H](C)[C@H](OC(C)=O)[C@@H]1C [rifampicin] | 2.25 logs | 3.5 log | – | – | – | 0.5 logs | – | – | – | – | – | – | – | 0.3 logs | – | – | – | – |
| NNC(=O)c1ccncc1 [isoniazid] | – | ~1.5 log | – | no significant effect | – | no effect | – | – | – | – | – | – | – | – | 72 h | 48 h | 0.5 logs | 2 logs |
